Data published in US12480163B2, “Compositions and methods for identification assessment, prevention, and treatment of Ewing sarcoma using TP53 dependency biomarkers and modulators” (Dana-Farber Cancer Institute, Inc., priority 2018, dated 2025).
“Also recorded” adds a separate entry of the source.

How the values were obtained:
[1] = tested on: MDM2, p53, and p21 protein levels; assay: Western immunoblotting of MDM2, p53, p21 in TP53 wild-type Ewing sarcoma cell lines; type: cell-based
Method: (§1) Whole-cell lysates were extracted in cell lysis buffer (Cell Signaling) supplemented with EDTA-free protease inhibitors and PhosSTOP™ phosphatase inhibitors (Roche). Western immunoblotting was performed using standard techniques. Primary antibodies used included anti-MDM2 (ab178938; Abcam), anti-MDM2 (86934; Cell Signaling), anti-MDM4 (A300-287A; Bethyl Laboratories), anti-p53 (2527S; Cell Signaling), anti-p21 (2946S; Cell Signaling), anti-Vinculin (18058; Abcam), anti-Wip1 (A300-664A; Bethyl Laboratories), anti-pSer15-p53 (9284; Cell Signaling), anti-USP7 (A300-033A; Bethyl Laboratories), and anti-Tubulin (cp06; CalBiochem).

p53-MDM4 complex = target: T1, p53-MDM4 complex (Homo sapiens, UniProt O15151); assay: MDM4 immunoprecipitation from TC32 cell lysates, p53 and MDM4 Western blot; type: binding; conditions: TC32 lysates after RG7388 pre-treatment, 20 μM compound
T1 construct: endogenous in cells; host or cells: TC32 Ewing sarcoma cells (TP53 wild-type), lysed in NP-40 buffer
T1 sequence (O15151 1-490): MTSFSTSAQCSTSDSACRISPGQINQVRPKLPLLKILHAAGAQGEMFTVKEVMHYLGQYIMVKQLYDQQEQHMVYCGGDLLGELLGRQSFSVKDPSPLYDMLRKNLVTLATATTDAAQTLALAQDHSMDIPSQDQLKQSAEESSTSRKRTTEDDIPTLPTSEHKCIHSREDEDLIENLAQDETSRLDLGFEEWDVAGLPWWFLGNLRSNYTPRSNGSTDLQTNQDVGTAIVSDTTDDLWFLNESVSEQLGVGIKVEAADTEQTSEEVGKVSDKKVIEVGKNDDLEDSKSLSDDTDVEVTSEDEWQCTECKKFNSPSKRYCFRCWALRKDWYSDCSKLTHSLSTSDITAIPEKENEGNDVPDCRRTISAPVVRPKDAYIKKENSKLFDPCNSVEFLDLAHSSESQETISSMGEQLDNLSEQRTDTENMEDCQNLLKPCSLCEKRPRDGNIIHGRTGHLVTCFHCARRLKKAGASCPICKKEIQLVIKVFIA
Method: g. Immunoprecipitation Experiments
Five million TC32 cells were treated with either 10 μM RG7388 or vehicle control for 4 h. Cells were lysed in buffer A (150 mM NaCl, 50 mM Tris, and 0.5% NP-40, pH 7.4) and combined with anti-MDM4 antibody (A300-287A; Bethyl Laboratories) in the presence of 20 μM RG7388, ATSP-7041, or vehicle control in a total volume of 1 ml, rotating at 4° C. for 16 h. Subsequently, 50 μl washed Protein AG beads (sc-2003; Santa Cruz) were added and the mixture was incubated for 1 h rotating at 4° C. Beads were washed three times in buffer A, and protein complexes were eluted by boiling in NuPage® LDS Sample Buffer (NP0007; Invitrogen) supplemented with DTT. Samples were analyzed by Western blot with antibodies against p53 DO-1 (sc-126; Santa Cruz) and MDM4 (A300-287A; Bethyl Laboratories).

Wip1 = target: T2, Wip1 (Homo sapiens, UniProt O15297); assay: Western immunoblotting of Wip1 and pSer15-p53; type: cell-based; conditions: TC32 and CHLA258 cells, 2 d
T2 construct: Whole-cell lysates were extracted in cell lysis buffer (Cell Signaling); endogenous in cells; host or cells: TP53 wild-type Ewing sarcoma cell lines
T2 sequence (O15297 1-605): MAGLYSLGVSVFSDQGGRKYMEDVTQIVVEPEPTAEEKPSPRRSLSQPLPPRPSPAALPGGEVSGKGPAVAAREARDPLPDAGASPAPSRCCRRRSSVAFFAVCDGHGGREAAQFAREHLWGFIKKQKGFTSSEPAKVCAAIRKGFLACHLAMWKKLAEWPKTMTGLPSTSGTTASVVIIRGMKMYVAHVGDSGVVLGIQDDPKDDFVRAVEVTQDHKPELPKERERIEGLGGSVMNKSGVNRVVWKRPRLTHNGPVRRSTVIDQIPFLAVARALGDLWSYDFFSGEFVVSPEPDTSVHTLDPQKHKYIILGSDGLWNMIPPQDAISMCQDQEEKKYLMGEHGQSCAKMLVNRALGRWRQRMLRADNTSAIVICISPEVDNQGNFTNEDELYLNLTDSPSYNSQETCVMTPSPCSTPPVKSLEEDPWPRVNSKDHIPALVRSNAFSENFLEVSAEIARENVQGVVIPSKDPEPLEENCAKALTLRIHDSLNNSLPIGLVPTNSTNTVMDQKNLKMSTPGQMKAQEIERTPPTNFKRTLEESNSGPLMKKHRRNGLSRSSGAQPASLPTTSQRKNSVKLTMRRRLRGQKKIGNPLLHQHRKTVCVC
Method: as §1

TP53 knockout cells = assay: CellTiter-Glo cell viability assay, TP53 knockout cells; type: cell-based
Method: Lentivirus was produced by transfecting HEK-293T cells with the pLentiV2 vector (Addgene plasmid 52961) and the packaging plasmids pCMV8.9 and pCMV-VSVG according to the FuGENER 6 (Roche) protocol. For lentiviral transduction, Ewing sarcoma cells were incubated with 2 ml of virus and 8 μg/ml of polybrene (Sigma-Aldrich). Cells were selected in puromycin (Sigma-Aldrich) 48 h after infection for single knockout experiments. For dual knockout experiments, PPM1D, USP7, and MDM4 sgRNA sequences were cloned into a LentiV2 vector with a blasticidin selection marker (Addgene plasmid 83480).
d. sgRNA Sequences sgRNAs were designed using the Broad Institute's sgRNA designer tool. The following sequences were used as control or to target the respective genes: control sgRNA, 5′-[…]-3′ (SEQ ID NO: 125); sgMDM2 2: 5′-[…]-3′ (SEQ ID NO: 126); sgMDM2 5: 5′-[…]-3′ (SEQ ID NO: 127); sgMDM4 4: 5′-[…]-3′ (SEQ ID NO: 128); sgMDM4 6: 5′-[…]-3′ (SEQ ID NO: 129); sgUSP7 1: 5′-[…]-3′ (SEQ ID NO: 130); sgUSP7 2: 5′-ACCATACCCAAATTATTC CG-3′ (SEQ ID NO: 131); sgPPMID 1: 5′-[…]-3′ (SEQ ID NO: 132); sgPPMID 2: 5′-[…]-3′ (SEQ ID NO: 133); sgTP53 1: 5′-[…]-3′ (SEQ ID NO: 134); sgTP53 2: 5′-[…]-3′ (SEQ ID NO: 135); sgTP53 4: 5′-[…]-3′ (SEQ ID NO: 136); and sgTP53 5: 5′-[…]-3′ (SEQ ID NO: 137). e. Protein Extraction and Immunoblotting
Cell viability was assessed using the CellTiter-Glo® Luminescent Cell Viability Assay (Promega). Viability assays were performed after Ewing sarcoma cell lines were infected with sgRNAs targeting TP53, MDM2, MDM4, PPM1D, or USP7 or treated with ATSP-7041, ATSP-7342, GSK2830371, P5091, XL-188, or vehicle control.

With `CC(=O)N[C@@H](CC(C)C)C(=O)N[C@H](C(=O)N[C@@H](Cc1ccccc1)C(=O)N[C@]1(C)CCCCCCC=CCCC[C@@](C)(C(=O)N[C@@H](CO)C(=O)N[C@@H](C)C(=O)N[C@@H](C)C(N)=O)NC(=O)[C@H](CC2CCC2)NC(=O)[C@H](CCC(N)=O)NC(=O)[C@H](C)NC(=O)[C@H](Cc2c[nH]c3ccccc23)NC(=O)[C@H](Cc2ccc(O)cc2)NC(=O)[C@H](CCC(=O)O)NC1=O)[C@@H](C)O` [ATSP-7041, Ac-Leu17-Thr-Phe-cyclo(R8-Glu-Tyr-Trp-Ala-Gln-Cba-S5)-Ser-Ala-Ala30-NH2] the “p53 protein levels, combination of ATSP-7041 and doxorubicin” value ([1]; TC32 cells, 2 d) was “greatly increased p53 protein levels”, the “p53 protein levels, combination of ATSP-7041 and etoposide” value ([1]; TC32 cells, 2 d) was “greatly increased p53 protein levels” and the “p53 protein levels, combination of ATSP-7041 and vincristine” value ([1]; TC32 cells, 2 d) was “greatly increased p53 protein levels”. The “MDM2, p53, and p21 protein levels” value ([1]; TP53 wild-type Ewing sarcoma cell lines, Western blot) was “increased protein levels of MDM2, p53, and p21; also recorded: Concentration-dependent increases”, the “disruption of p53-MDM4 complex (MDM4 immunoprecipitation)” value (p53-MDM4 complex) was “partial disruption of p53-MDM4 complex; also recorded: decreased the level of p53-MDM4 interaction” and the “phosphorylation of p53 at Serine 15, combination of ATSP-7041 and GSK2830371” value (Wip1) was “increased phospho-Serine15-p53 protein levels; also recorded: increased the phosphorylation of p53 at Serine 15; also recorded: increases the level of pSer15 on p53 more than with either molecule alone”. For the same compound, the “effect of TP53 knockout on the cytotoxic effect of the compound (viability)” value (TP53 knockout cells) was “fully rescues the cytotoxic effect”.
